Measurements reported in US6022893A, “Hydroxamic acid derivatives” (ONO Pharmaceutical Co., Ltd., priority 1995, dated 2000).

Tests used:
gelatinase A [1] = target: T1, gelatinase A (Homo sapiens, UniProt P08253); assay: Inhibitory activity against gelatinase A (FITC-labeled gelatin substrate); type: biochemical; conditions: incubated 2 hours at 37° C., APMA-activated progelatinase A from human normal skin dermal fibroblasts
T1 construct: endogenous in cells; host or cells: human normal skin dermal fibroblasts (HNDF); progelatinase A purified from them
T1 sequence (P08253 110-660): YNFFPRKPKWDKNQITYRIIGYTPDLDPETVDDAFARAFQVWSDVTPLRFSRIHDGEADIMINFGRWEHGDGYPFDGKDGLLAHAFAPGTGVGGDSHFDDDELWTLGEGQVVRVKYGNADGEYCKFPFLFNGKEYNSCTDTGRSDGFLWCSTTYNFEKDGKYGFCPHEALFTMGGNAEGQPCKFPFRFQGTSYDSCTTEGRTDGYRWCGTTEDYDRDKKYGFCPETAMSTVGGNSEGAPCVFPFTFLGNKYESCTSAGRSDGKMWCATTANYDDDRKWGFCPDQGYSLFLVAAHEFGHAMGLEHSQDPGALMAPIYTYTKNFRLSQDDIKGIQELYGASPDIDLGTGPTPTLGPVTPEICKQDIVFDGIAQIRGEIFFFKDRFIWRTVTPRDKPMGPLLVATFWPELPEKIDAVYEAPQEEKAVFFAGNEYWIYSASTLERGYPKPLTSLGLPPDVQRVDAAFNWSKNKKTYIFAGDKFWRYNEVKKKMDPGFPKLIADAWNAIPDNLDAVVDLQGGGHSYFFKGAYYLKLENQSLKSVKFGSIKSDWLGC
Experimental: (§1) The potency of inhibitory activity against each matrix metalloproteinase is confirmed as below. The IC50 value for inhibition of gelatinase A activity is determined as follows.
(§2) (1) Inhibitory activity against gelatinase A
(§3) Progelatinase A (7 μl; in assay buffer (90 μl )) was purified from human normal skin dermal fibroblasts (HNDF). It was activated by the addition of 10 mM of p-aminophenylmercuric acetate (APMA) (10 μl) for 1 hour at 37° C.
The solution of activated gelatinase A (7 μl tube, 98μl) was mixed with various concentrations of the test compound or dimethylsulfoxide (2 μl) and gelatin (100 μl) labeled with 0.05% fluorescein isothiocyanate (FITC) and incubated for 2 hours at 37° C. The reaction was terminated by the addition of 0.1 M Tris-HCI (pH9.5) containing 94.7% ethanol (750 μl). The mixture was stirred and then allowed to stand for 30 minutes at 0° C. The mixture was centrifuged for 30 minutes at 900×g. The IC50 was determined by measuring the fluorescent intensity in the supernatant (Ex=495 nm, and Em=520 nm). The results are shown in Table 24 (Example number 2 and 2(3)).

gelatinase A [2] = target: T1, gelatinase A; assay: Inhibitory activity against gelatinase A (synthetic substrate MOCAc-Pro-Leu-Gly-Leu-A2 pr(Dnp)-Ala-Arg-NH2); type: biochemical; conditions: final 13.5 μM, incubated 20 minutes at 37° C., activated gelatinase A
Experimental: as §1, §2, §3
Alternatively the inhibitory activity of the test compound was measured by using the synthetic substrate (MOCAc-Pro-Leu-Gly-Leu-A2 pr(Dnp)-Ala-Arg-NH2). The substrate solution (890 μl; the final concentration was 13.5 μM) was mixed with various concentrations of the test compound or dimethylsulfoxide ([…]) for 5 minutes at 37° C. The activated gelatinase A (7 μl/tube, 100 μl) was added to the reaction mixture and further incubated for 20 minutes at 37° C. 0.1 M sodium acetate buffer (2 ml; pH4.0) was added into the mixture. The IC50 was determined by measuring the fluorescent intensity (Ex=328 nm, and Em=393 nm) in this solution. The results are shown in Table 24 (Example number 2(4) and 3(2)).

| SMILES | IC50 (gelatinase A [1]) [nM] | IC50 (gelatinase A [2]) [nM] |
| --- | --- | --- |
| CCCCCc1ccc(C(=O)Nc2ccc(S(=O)(=O)N[C@H](Cc3ccccc3)C(=O)NO)cc2)cc1 [Example 2(3), N-Hydroxy-N-[N'-[[4-(4-pentylbenzoylamino)phenyl]sulfonyl]-D-phenylalanyl]amide] | 1 | – |
| Cc1ccc(C(=O)Nc2ccc(S(=O)(=O)N[C@H](Cc3c[nH]c4ccccc34)C(=O)NO)cc2)cc1 [Example 2(4), N-Hydroxy-N-[N'-[[4-(p-toluoylamino)phenyl]sulfonyl]-D-tryptophyl]amide] | – | 0.61 |
| Cc1ccc(C(=O)Nc2ccc(S(=O)(=O)NCC(=O)NO)cc2)cc1 [Example 2, N N-Hydroxy-N-[N'-[[4-(p-toluoylamino)phenyl]sulfonyl]glycyl]amide] | 1.7 | – |
| C[C@@H](NS(=O)(=O)c1ccc(NC(=O)c2cccs2)cc1)C(=O)NO [Example 3(2)] | – | 0.23 |
